Experimental findings from patent US7981924B2, “Thiophene derivatives” (Actelion Pharmaceuticals Ltd., priority 2005, dated 2011) are described below.

One test concerns circulating lymphocytes. In words: Assessment of in vivo efficacy: circulating lymphocytes after oral administration. More on the design: species or system normotensive male Wistar rats. The note with it: 6 h after oral administration of 10 mg/kg, male Wistar rats, compared to vehicle group; mean ± SEM. As to the method:
The efficacy of the compounds of Formula (I) is assessed by measuring the circulating lymphocytes after oral administration of 3 to 30 mg/kg of a compound of Formula (I) to normotensive male Wistar rats. The animals are housed in climate-controlled conditions with a 12 h-light/dark cycle, and have free access to normal rat chow and drinking water. Blood is collected before and 3, 6 and 24 h after drug administration. Full blood is subjected to hematology using Advia Hematology system (Bayer Diagnostics, Zurich, Switzerland).
All data are presented as mean ±SEM. Statistical analyses are performed by analysis of variance (ANOVA) using Statistica (StatSoft) and the Student-Newman-Keuls procedure for multiple comparisons. The null hypothesis is rejected when p<0.05.

Test [1] deals with recombinant human S1P1 receptor (Homo sapiens, UniProt P21453). In words: GTPγS assay to determine EC50 values. In kind it is biochemical. The settings on record: 35S-GTPγS binding, membrane preparations of CHO cells expressing recombinant human S1P1 receptor. The procedure:
GTPγS binding assays are performed in 96 well microtiter plates (Nunc, 442587) in a final volume of 200 μl, using membrane preparations of CHO cells expressing recombinant human S1P1 receptor. Assay conditions are 20 mM Hepes (Fluka, 54461), 100 mM NaCl (Fluka, 71378), 5 mM MgCl2 (Fluka, 63064), 0.1% BSA (Calbiochem, 126609), 1 μM GDP (Sigma, G-7127), 2.5% DMSO (Fluka, 41644), 50 pM ^35S-GTPγS (Amersham Biosciences, SJ1320). The pH is 7.4. Test compounds are dissolved and diluted in 100% DMSO and pre-incubated at room temperature for 30 min in 150 μl of the above assay buffer, in the absence of ^35S-GTPγS. After addition of 50 μl of ^35S-GTPγS, the assay is incubated for 1 h at rt. The assay is terminated by transfer of the reaction mixture to a Multiscreen plate (Millipore, MAHFC1H60) using a cell harvester from Packard Biosciences, and the plates are washed with ice-cold 10 mM Na2HPO4/NaH2PO4 (70%/30%), dried, sealed at the bottom and, after addition of 25 μl MicroScint20 (Packard Biosciences, order no. 6013621), sealed on the top. Membrane-bound ^35S-GTPγS is measured with a TopCount from Packard Biosciences.
EC50 is the concentration of agonist inducing 50% of the maximal specific ^35S-GTPγS binding. Specific binding is determined by subtracting non-specific binding from maximal binding. […]
The EC50 value was determined according to the method described above.
(Binding of GTPγS marks nucleotide exchange on a G protein.)

recombinant human S1P1 receptor, sequence (P21453 whole entry): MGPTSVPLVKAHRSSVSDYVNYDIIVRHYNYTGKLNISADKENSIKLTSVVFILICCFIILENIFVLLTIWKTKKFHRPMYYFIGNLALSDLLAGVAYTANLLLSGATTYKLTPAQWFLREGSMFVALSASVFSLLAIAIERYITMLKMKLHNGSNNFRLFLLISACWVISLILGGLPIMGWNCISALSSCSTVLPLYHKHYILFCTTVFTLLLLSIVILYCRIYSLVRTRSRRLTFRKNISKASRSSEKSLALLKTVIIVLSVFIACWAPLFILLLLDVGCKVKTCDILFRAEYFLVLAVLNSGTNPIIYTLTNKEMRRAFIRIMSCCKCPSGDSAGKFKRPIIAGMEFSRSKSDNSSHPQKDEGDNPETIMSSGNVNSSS

As for `CCc1sc(C(=O)CCc2cc(C)c(CCC(=O)O)c(C)c2)c2c1CC(C)(C)CC2` [Example 1, 3-{4-[3-(3-ethyl-5,5-dimethyl-4,5,6,7-tetrahydro-benzo[c]thiophen-1-yl)-3-oxo-propyl]-2,6-dimethyl-phenyl}-propionic acid], the Lymphocyte counts in the test on circulating lymphocytes is given as −61 ± 5%.
For the compound `CCc1cc(CCC(=O)c2sc(C(F)(F)F)c3c2CCC(C)(C)C3)cc(C)c1CCC(=O)O` [Example 4, 3-{4-[3-(5,5-Dimethyl-3-trifluoromethyl-4,5,6,7-tetrahydro-benzo[c]thiophen-1-yl)-3-oxo-propyl]-2-ethyl-6-methyl-phenyl}-propionic acid], the EC50 in test [1] came out at 4 nM.

One may read the EC50 as the concentration at which the effect is half-maximal.
